According to patent US11202792B2, “CD99 inhibitors and their uses” (GEORGETOWN UNIVERSITY, priority 2016, dated 2021):

Legend:
[1] = molecular target: T1, recombinant human full-length CD99 (Homo sapiens, UniProt P14209); test: SPR binding kinetics, recombinant human full-length CD99 (Biacore T200); details: full-length CD99 produced in HEK293 cells, immobilized by amine coupling
T1 construct: Purified recombinant human full-length CD99 produced in HEK293 cells was purchased from Origene; purchased Origene #TP304056; host or cells: HEK293
T1 sequence (P14209 23-185): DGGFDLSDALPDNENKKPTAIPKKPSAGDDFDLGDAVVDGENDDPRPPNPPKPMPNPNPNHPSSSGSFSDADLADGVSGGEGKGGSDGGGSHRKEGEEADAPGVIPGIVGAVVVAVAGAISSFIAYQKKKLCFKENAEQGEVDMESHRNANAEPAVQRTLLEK
Protocol: The initial binding screening of the NCI/DTP chemical libraries was performed on a Biacore T200 instrument at room temperature using a neutravidin-coated CM5 chip (GE Healthcare Bio-Sciences) coupled with biotinylated CD99-ECD on one flow cell at levels of ˜3,000 response units (RU). A negative control protein, Ly6k was immobilized on another flow cell of the same chip (˜11,000 RU), and the first flow cell was left empty for reference subtraction due to nonspecific binding. Analytes were diluted in HBS—P buffer [10 mmol/L HEPES, pH 7.4, 150 mmol/L NaCl, % 0.05 (v/v) surfactant P20], and were injected individually over all flow cells. The running buffer contained appropriate concentrations of DMSO in HBS—P to match the DMSO level of the samples. Kinetic studies for antibody- or compound-CD99 interactions were performed in a Biacore T200 instrument. Purified recombinant human full-length CD99 produced in HEK293 cells was purchased from Origene (Rockville, Md.) (#TP304056). The recombinant human full-length CD99 was immobilized on a CM5 sensor chip by the amine-coupling method in sodium acetate buffer, pH 4.0 (˜10,000 RU). The first flow cell was left empty for background signal subtraction. Kinetic characterization of the interactions was done by injecting increasing concentrations of analytes as indicated over CD99-captured and control surface. KD (equilibrium dissociation constant) values were obtained using BiaEvaluation software (version 1.0) (Biacore) (GE Healthcare). All kinetic experiments were conducted in HBS—P buffer, which contained 1% (v/v) DMSO in case of compounds.

[2] = system: TC-71 and RD-ES cell lines; test: Dose-dependent cytotoxicity assay in ES cell lines; format: cell-based, human; details: Homo sapiens; dose-response at 1, 3, 10 and 30 μmol/L in TC-71 and RD-ES
Protocol: (§1) The plate was installed into the RTCA system, and the electrical impedance (represented as cell index) was measured every 10 min.
The primary screen was based on a direct binding assay using surface plasmon resonance (SPR) technology with purified extracellular domain of CD99 (CD99-ECD) protein that was immobilized on a neutravidin-coated sensor chip. […] A negative control protein was used in order to eliminate non-specific binders. […] Dose-response studies were performed with 2 compounds at 1, 3, 10 and 30 μmol/L concentration in ES cell lines.

A673 ES cells = test: Cell viability IC50, A673; format: cell-based; details: Homo sapiens
Protocol: as §1
(§2) To investigate the relationship between the level of CD99 expression and drug sensitivity, the endogenous expression of CD99 was determined in a panel of 9 ES and 13 non-ES cell lines. The recombinant purified CD99-ECD protein was used to generate standard curves for immunoquantification of CD99 expression by immunoblotting (FIGS. 6B and 6C).

SK-N-MC ES cells = test: Cell viability IC50, SK-N-MC; format: cell-based; details: Homo sapiens
Protocol: as §1, §2

SKES-1 ES cells = test: Cell viability IC50, SKES-1; format: cell-based; details: Homo sapiens, SK-ES1
Protocol: as §1, §2

IOR/OS10 OS cells = test: Cell viability IC50, IOR/OS10; format: cell-based; details: Homo sapiens
Protocol: as §1, §2

IOR/OS20 OS cells = test: Cell viability IC50, IOR/OS20; format: cell-based; details: Homo sapiens
Protocol: as §1, §2

MG63 OS cells = test: Cell viability IC50, MG63; format: cell-based; details: Homo sapiens, MG-63
Protocol: as §1, §2

[3] = system: RH30 rhabdomyosarcoma cells; test: Cell viability IC50, RH30; format: cell-based; details: Homo sapiens; RH30 (RM)
Protocol: as §1, §2

[4] = system: ROCK2 expression in RDES, 6647, IOR/CAR and TC-71 ES cells; test: ROCK2 expression by immunoblot in ES cells; format: cell-based, human; details: 24 h, vs DMSO-treated control cells
Protocol: Immunoblot analysis was performed on total cell lysates for ROCK2 and GAPDH expression. In FIG. 8B, TC-71 control and TC-CD99-shRNA #2 cells were treated with either drug at indicated concentrations for 1, 3 and 6 h. Immunoblot analysis was performed on total cell lysates for ROCK2 and GAPDH expression. In FIG. 8C, cell migration experiments were performed using Boyden chamber transwell migration assay with 10% serum serving as the chemoattractant in the lower chamber. […] The number of migrated cells was then quantified by counting the cells in the bottom chamber under the microscope. Asterisks indicate statistically significant differences between treatments (*p<0.05; vs. control using a Student's unpaired t test). […]

[5] = system: TC-71, 6647 and RDES ES cells; test: Soft agar colony formation assay, ES cells; format: cell-based, human; details: dose-dependent
Protocol: Anchorage-independent growth was determined in 0.33% agarose (Sea-Plaque Agarose, Lonza) with a 0.5% agarose underlay. […] Colonies were counted after 7-12 days.

`Nc1nc(Cl)nc2c1ncn2[C@@H]1O[C@H](CO)[C@@H](O)[C@@H]1F` [clofarabine] gave a Kd [1] of 5.3 ± 3.2 µM, an IC50 [2] of less than 1 µM and an IC50 (A673 ES cells) of 1.9 µM. For the same compound, the IC50 (SK-N-MC ES cells) was 0.17 µM, the IC50 (SKES-1 ES cells) was 0.3 µM and the IC50 (IOR/OS10 OS cells) was 1.37 µM. It also gave an IC50 (IOR/OS20 OS cells) greater than 10 µM, an IC50 (MG63 OS cells) greater than 10 µM and an IC50 [3] greater than 10 µM. The ROCK2 expression [4] was “notable decrease” and the “colony formation (anchorage-independent growth)” value [5] was “significantly inhibited”.

Work on `Nc1nc(Cl)nc2c1ncn2[C@H]1C[C@H](O)[C@@H](CO)O1` [cladribine] yielded a Kd [1] of 3.8 ± 3.3 µM, an IC50 [2] of less than 1 µM and an IC50 (A673 ES cells) of 7.42 µM. The IC50 (SK-N-MC ES cells) was 0.68 µM, the IC50 (SKES-1 ES cells) was 0.43 µM and the IC50 (IOR/OS10 OS cells) was 11.4 µM. It also gave an IC50 (IOR/OS20 OS cells) greater than 30 µM, an IC50 (MG63 OS cells) greater than 30 µM and an IC50 [3] of 3.26 µM. The ROCK2 expression [4] was “notable decrease” and the “colony formation (anchorage-independent growth)” value [5] was “significantly inhibited”.
